For this assay, the target named is BRD4 (Homo sapiens, UniProt O60885). Put plainly: Time Resolved Fluorescence Resonance Energy Transfer (TR-FRET) binding assay, BRD4. As to conditions: one of the FRET assays described; read-out: FRET BRD4 IC50.

A value given as a limit tells only on which side of the number the result lay.

For `[2H]C([2H])([2H])c1nnn(C)c1-c1cnc2c3ccc(S(C)(=O)=O)cc3n(C(c3ncccc3F)C3CCC(F)(F)CC3)c2c1` (stereo not shown) [Example 239, 2-[(4,4-Difluorocyclohexyl)({7-methanesulfonyl-3-[4-(^2H3)methyl-1-methyl-1H-1,2,3-triazol-5-yl]-5H-pyrido[3,2-b]indol-5-yl})methyl]-3-fluoropyridine], the IC50 was < 5 nM. For the compound `[2H]C([2H])([2H])c1nnn(C)c1-c1cnc2c3ccc(S(C)(=O)=O)cc3n(C(c3ncccc3F)C3CCC(F)(F)CC3)c2c1` (stereo not shown) [Example 240, 2-[(4,4-Difluorocyclohexyl)({7-methanesulfonyl-3-[4-(^2H3)methyl-1-methyl-1H-1,2,3-triazol-5-yl]-5H-pyrido[3,2-b]indol-5-yl})methyl]-3-fluoropyridine], the IC50 is < 5 nM. For `Cc1nnn(C)c1-c1cnc2c3ccc(C4(O)COC4)cc3n([C@H](c3ccc(F)cc3)C3CCOCC3)c2c1` [Example 243, 3-[3-(Dimethyl-1H-1,2,3-triazol-5-yl)-5-[(S)-(4-fluorophenyl)(oxan-4-yl)methyl]-5H-pyrido[3,2-b]indol-7-yl]oxetan-3-ol] the value was < 5 nM; for `Cc1noc(C)c1-c1cnc2c3ccc(C4(O)COC4)cc3n([C@H](c3ccccc3)C3CCOCC3)c2c1` [Example 244, 3-[3-(Dimethyl-1,2-oxazol-4-yl)-5-[(S)-oxan-4-yl(phenyl)methyl]-5H-pyrido[3,2-b]indol-7-yl]oxetan-3-ol], < 5 nM. Turning to `[2H]C([2H])([2H])c1nnn(C)c1-c1cnc2c3c(OCC(F)F)ccc(S(C)(=O)=O)c3n(C(c3ncccc3F)C3CCOCC3)c2c1` (stereo not shown) [Example 245, 2-{[9-(2,2-Difluoroethoxy)-6-methanesulfonyl-3-[4-(^2H3)methyl-1-methyl-1H-1,2,3-triazol-5-yl]-5H-pyrido[3,2-b]indol-5-yl](oxan-4-yl)methyl}-3-fluoropyridine], the IC50 was < 5 nM. The result for `[2H]C([2H])([2H])c1nnn(C)c1-c1cnc2c3c(OCC(F)F)ccc(S(C)(=O)=O)c3n(C(c3ncccc3F)C3CCOCC3)c2c1` (stereo not shown) [Example 246, 2-{[9-(2,2-Difluoroethoxy)-6-methanesulfonyl-3-[4-(^2H3)methyl-1-methyl-1H-1,2,3-triazol-5-yl]-5H-pyrido[3,2-b]indol-5-yl](oxan-4-yl)methyl}-3-fluoropyridine] reads < 1500 nM; that for `[2H]C([2H])([2H])c1nnn(C)c1-c1cnc2c3c(OCC(C)(F)F)ccc(S(C)(=O)=O)c3n(C(c3ncccc3F)C3CCOCC3)c2c1` (stereo not shown) [Example 247, 2-{[9-(2,2-Difluoropropoxy)-6-methanesulfonyl-3-[4-(^2H3)methyl-1-methyl-1H-1,2,3-triazol-5-yl]-5H-pyrido[3,2-b]indol-5-yl](oxan-4-yl)methyl}-3-fluoropyridine], < 5 nM; that for `[2H]C([2H])([2H])c1nnn(C)c1-c1cnc2c3c(OCC(C)(F)F)ccc(S(C)(=O)=O)c3n(C(c3ncccc3F)C3CCOCC3)c2c1` (stereo not shown) [Example 248, 2-{[9-(2,2-Difluoropropoxy)-6-methanesulfonyl-3-[4-(^2H3)methyl-1-methyl-1H-1,2,3-triazol-5-yl]-5H-pyrido[3,2-b]indol-5-yl](oxan-4-yl)methyl}-3-fluoropyridine], < 1500 nM. `Cc1noc(C)c1-c1cnc2c3ccc(CC(C)(C)O)cc3n([C@H](c3ccccc3)C3CCOCC3)c2c1` [Example 252, 1-[3-(Dimethyl-1,2-oxazol-4-yl)-5-[(S)-oxan-4-yl(phenyl)methyl]-5H-pyrido[3,2-b]indol-7-yl]-2-methylpropan-2-ol]: the IC50 was < 5 nM.

With `Cc1nnn(C)c1-c1cnc2c3cc(CC(C)(C)O)ccc3n([C@H](c3ccccc3)C3CCOCC3)c2c1` [Example 255, 1-[3-(Dimethyl-1H-1,2,3-triazol-5-yl)-5-[(S)-oxan-4-yl(phenyl)methyl]-5H-pyrido[3,2-b]indol-8-yl]-2-methylpropan-2-ol], the IC50 was < 5 nM. For `Cc1nnn(C)c1-c1cnc2c3ccc(CC(C)(C)O)cc3n([C@H](c3ccc(F)cc3)C3CCOCC3)c2c1` [Example 256, 1-[3-(Dimethyl-1H-1,2,3-triazol-5-yl)-5-[(S)-(4-fluorophenyl)(oxan-4-yl)methyl]-5H-pyrido[3,2-b]indol-7-yl]-2-methylpropan-2-ol] the value was < 5 nM. On to `Cc1nnn(C)c1-c1cnc2c3c(S(C)(=O)=O)cccc3n([C@H](c3ccc(F)cc3)C3CCOCC3)c2c1` [Example 257, 5-{5-[(S)-(4-Fluorophenyl)(oxan-4-yl)methyl]-9-methanesulfonyl-5H-pyrido[3,2-b]indol-3-yl}-1,4-dimethyl-1H-1,2,3-triazole], for which the IC50 was < 5 nM. The result for `Cc1nnn(C)c1-c1cnc2c3c(S(C)(=O)=O)cccc3n([C@H](c3ccccc3)C3CCOCC3)c2c1` [Example 259, 5-{9-Methanesulfonyl-5-[(S)-oxan-4-yl(phenyl)methyl]-5H-pyrido[3,2-b]indol-3-yl}-1,4-dimethyl-1H-1,2,3-triazole] reads < 5 nM. In the case of `COc1cc(C(C)(C)O)cc2c1c1ncc(-c3c(C)nnn3C)cc1n2[C@H](c1ccccc1)C1CCOCC1` [Example 260, 2-[3-(Dimethyl-1H-1,2,3-triazol-5-yl)-9-methoxy-5-[(S)-oxan-4-yl(phenyl)methyl]-5H-pyrido[3,2-b]indol-7-yl]propan-2-ol], the IC50 is < 5 nM. The result for `Cc1nnn(C)c1-c1cnc2c3ccc(CC(C)(C)O)cc3n([C@H](c3ccccc3)C3CCOCC3)c2c1` [Example 261, 1-[3-(Dimethyl-1H-1,2,3-triazol-5-yl)-5-[(S)-oxan-4-yl(phenyl)methyl]-5H-pyrido[3,2-b]indol-7-yl]-2-methylpropan-2-ol] reads < 5 nM; that for `[2H]C([2H])([2H])c1nnn(C)c1-c1cnc2c3ccc(C(C)(C)O)cc3n([C@H](c3ccccc3)C3CCOCC3)c2c1` [Example 262, 2-{3-[4-(^2H3)Methyl-1-methyl-1H-1,2,3-triazol-5-yl]-5-[(S)-oxan-4-yl(phenyl)methyl]-5H-pyrido[3,2-b]indol-7-yl}propan-2-ol], < 5 nM; that for `Cc1nnn(C)c1-c1cnc2c3ccc(S(C)(=O)=O)cc3n([C@H](c3ccccc3F)C3CCOCC3)c2c1` [Example 264], < 5 nM. The result for `[2H]C([2H])([2H])c1nnn(C)c1-c1cnc2c3c(S(C)(=O)=O)cccc3n([C@H](c3ccccc3)C3CCOCC3)c2c1` [Example 268, 5-{9-Methanesulfonyl-5-[(S)-oxan-4-yl(phenyl)methyl]-5H-pyrido[3,2-b]indol-3-yl}-4-(^2H3)methyl-1-methyl-1H-1,2,3-triazole] reads < 5 nM; that for `Cc1nnn(C)c1-c1cnc2c3c(S(C)(=O)=O)cccc3n([C@H](c3ccccc3F)C3CCOCC3)c2c1` [Example 269], < 5 nM.

In the case of `[2H]C([2H])([2H])c1nnn(C)c1-c1cnc2c3ccc(C(C)(C)O)c(F)c3n([C@H](c3ccc(F)cc3)C3CCOCC3)c2c1` [Example 271, 2-{6-Fluoro-5-[(S)-(4-fluorophenyl)(oxan-4-yl)methyl]-3-[4-(^2H3)methyl-1-methyl-1H-1,2,3-triazol-5-yl]-5H-pyrido[3,2-b]indol-7-yl}propan-2-ol], the IC50 is < 5 nM. For the compound `[2H]C([2H])([2H])c1nnn(C)c1-c1cnc2c3ccc(C(C)(C)O)c(F)c3n([C@H](c3ccccc3F)C3CCOCC3)c2c1` [Example 272, 2-{6-Fluoro-5-[(S)-(2-fluorophenyl)(oxan-4-yl)methyl]-3-[4-(^2H3)methyl-1-methyl-1H-1,2,3-triazol-5-yl]-5H-pyrido[3,2-b]indol-7-yl}propan-2-ol], the IC50 is < 5 nM. The result for `[2H]C([2H])([2H])c1nnn(C)c1-c1cnc2c3c(OC)cc(C(C)(C)O)cc3n([C@H](c3ccccc3)C3CCOCC3)c2c1` [Example 273, 2-{9-Methoxy-3-[4-(^2H3)methyl-1-methyl-1H-1,2,3-triazol-5-yl]-5-[(S)-oxan-4-yl(phenyl)methyl]-5H-pyrido[3,2-b]indol-7-yl}propan-2-ol] reads < 5 nM; that for `COc1cc(C(C)(C)O)cc2c1c1ncc(-c3c(C)nnn3C)cc1n2[C@H](c1ccccc1F)C1CCOCC1` [Example 274], < 5 nM.

For `[2H]C([2H])([2H])c1nnn(C)c1-c1cnc2c3cc(F)c(C(C)(C)O)cc3n([C@H](c3ccc(F)cc3)C3CCOCC3)c2c1` [Example 277, 2-{8-Fluoro-5-[(S)-(4-fluorophenyl)(oxan-4-yl)methyl]-3-[4-(^2H3)methyl-1-methyl-1H-1,2,3-triazol-5-yl]-5H-pyrido[3,2-b]indol-7-yl}propan-2-ol], the IC50 is < 5 nM. The result for `[2H]C([2H])([2H])c1nnn(C)c1-c1cnc2c3ccc(C(C)(C)O)cc3n(C(c3ccc(F)cc3F)C3CCOCC3)c2c1` (stereo not shown) [Example 280, 2-{5-[(2,4-Difluorophenyl)(oxan-4-yl)methyl]-3-[4-(^2H3)methyl-1-methyl-1H-1,2,3-triazol-5-yl]-5H-pyrido[3,2-b]indol-7-yl}propan-2-ol] reads < 5 nM; that for `[2H]C([2H])([2H])c1nnn(C)c1-c1cnc2c3ccc(C(C)(C)O)cc3n(C(c3ccc(F)cc3F)C3CCOCC3)c2c1` (stereo not shown) [Example 281, 2-{5-[(2,4-Difluorophenyl)(oxan-4-yl)methyl]-3-[4-(^2H3)methyl-1-methyl-1H-1,2,3-triazol-5-yl]-5H-pyrido[3,2-b]indol-7-yl}propan-2-ol], < 5 nM. The result for `[2H]C([2H])([2H])c1nnn(C)c1-c1cnc2c3ccc(C(C)(C)O)c(F)c3n(C(c3ccc(F)cc3F)C3CCOCC3)c2c1` (stereo not shown) [Example 282, 2-{5-[(2,4-Difluorophenyl)(oxan-4-yl)methyl]-6-fluoro-3-[4-(^2H3)methyl-1-methyl-1H-1,2,3-triazol-5-yl]-5H-pyrido[3,2-b]indol-7-yl}propan-2-ol] reads < 5 nM; that for `[2H]C([2H])([2H])c1nnn(C)c1-c1cnc2c3ccc(C(C)(C)O)c(F)c3n(C(c3ccc(F)cc3F)C3CCOCC3)c2c1` (stereo not shown) [Example 283, 2-{5-[(2,4-Difluorophenyl)(oxan-4-yl)methyl]-6-fluoro-3-[4-(^2H3)methyl-1-methyl-1H-1,2,3-triazol-5-yl]-5H-pyrido[3,2-b]indol-7-yl}propan-2-ol], < 5 nM.

One may read the IC50 as the point on the concentration scale where inhibition reaches its midpoint.

For the origin of these results see patent publication US10112941B2, “Tricyclic compounds as anticancer agents” (BRISTOL-MYERS SQUIBB COMPANY, priority 2013, dated 2018).
